In brackets after ≈: the same amount, converted by molar mass.
How the values were obtained:
[1] = system: Candida albicans; test: Fungicidal activity against Candida albicans MTCC 227 after 3 days; format: functional; settings: MTCC 227, 72 h
[2] = system: Aspergillus niger; test: Fungicidal activity against Aspergillus niger MTCC 282 after 3 days; format: functional; settings: MTCC 282, 72 h
[3] = system: Escherichia coli; test: Bactericidal against Escherichia coli MTCC 443 after 3 days; format: functional; settings: MTCC 443, 72 h
[4] = system: Klebsiella pneumoniae; test: Bactericidal activity against Klebsiella pneumoniae MTCC 432 after 3 days; format: functional; settings: MTCC 432, 72 h
[5] = system: Staphylococcus aureus; test: Bactericidal activity against Staphylococcus aureus MTCC 096 after 3 days; format: functional; settings: MTCC 096, 72 h
[6] = system: Candida albicans; format: functional, MTCC 227
[7] = system: Candida albicans; test: Antifungal activity against Candida albicans MTCC 227 after 28 to 30 hr by serial dilution method; format: functional
[8] = system: Aspergillus flavus; test: Antifungal activity against Aspergillus flavus MTCC 277 at […] to […] ug/ml after 28 to 30 hr by cup-plate method; format: functional
[9] = system: Aspergillus niger; test: Antifungal activity against Aspergillus niger MTCC 282 at […] to […] ug/ml after 28 to 30 hr by cup-plate method; format: functional
[10] = system: Klebsiella pneumoniae; format: functional, MTCC 432
[11] = system: Aspergillus niger; test: Antifungal activity against Aspergillus niger MTCC 282 after 28 to 30 hr by serial dilution method; format: functional
[12] = system: Klebsiella pneumoniae; test: Antibacterial activity against Klebsiella pneumoniae MTCC 432 after 16 to 18 hr by serial dilution method; format: functional
[13] = system: Salmonella typhi; test: Antibacterial activity against Salmonella enterica subsp. enterica serovar Typhi MTCC 733 at […] to […] ug/ml after 16 to 18 hr by cup-plate method; format: functional
[14] = system: Salmonella typhi; test: Antibacterial activity against Salmonella enterica subsp. enterica serovar Typhi MTCC 733 after 16 to 18 hr by serial dilution method; format: functional
[15] = system: Pseudomonas aeruginosa; format: functional, MTCC 424
[16] = system: Pseudomonas aeruginosa; test: Antibacterial activity against Pseudomonas aeruginosa MTCC 424 after 16 to 18 hr by serial dilution method; format: functional
[17] = system: Escherichia coli; test: Antibacterial activity against Escherichia coli MTCC 443 after 16 to 18 hr by serial dilution method; format: functional
[18] = system: Escherichia coli; format: functional, MTCC 443
[19] = system: Aspergillus flavus; test: Antifungal activity against Aspergillus flavus MTCC 277 after 28 to 30 hr by serial dilution method; format: functional
[20] = system: Aspergillus fumigatus; test: Antifungal activity against Aspergillus fumigatus MTCC 343 at […] to […] ug/ml after 28 to 30 hr by cup-plate method; format: functional
[21] = system: Aspergillus fumigatus; test: Antifungal activity against Aspergillus fumigatus MTCC 343 after 28 to 30 hr by serial dilution method; format: functional
[22] = system: Staphylococcus epidermidis; format: functional, MTCC 435
[23] = system: Staphylococcus epidermidis; test: Antibacterial activity against Staphylococcus epidermidis MTCC 435 after 16 to 18 hr by serial dilution method; format: functional
[24] = system: Bacillus subtilis; test: Antibacterial activity against Bacillus subtilis MTCC 441 after 16 to 18 hr by serial dilution method; format: functional
[25] = system: Bacillus subtilis; format: functional, MTCC 441
[26] = system: Staphylococcus aureus; format: functional, MTCC 096
[27] = system: Staphylococcus aureus; test: Antibacterial activity against Staphylococcus aureus MTCC 096 after 16 to 18 hr by serial dilution method; format: functional

SMILES	inhibition zone (IZ) [6]	MIC [7]	inhibition zone (IZ) [8]	inhibition zone (IZ) [9]	inhibition zone (IZ) [10]	MIC [11]	MIC [12]	inhibition zone (IZ) [13]	MIC [14]	inhibition zone (IZ) [15]	MIC [16]	MIC [17]	MIC [19]	inhibition zone (IZ) [20]	MIC [21]	inhibition zone (IZ) [22]	MIC [23]	MIC [24]	inhibition zone (IZ) [25]	inhibition zone (IZ) [26]	also measured
COc1cc(-c2nnc(COc3cc(=O)oc4ccccc34)[nH]2)cc(OC)c1OC	12 mm	12.5 µg/mL (≈ 30.5 µM)	<10 mm	14 mm	11 mm	6.25 µg/mL (≈ 15.3 µM)	12.5 µg/mL (≈ 30.5 µM)	14 mm	6.25 µg/mL (≈ 15.3 µM)	<10 mm	25 µg/mL (≈ 61.1 µM)	12.5 µg/mL (≈ 30.5 µM)	25 µg/mL (≈ 61.1 µM)	11 mm	25 µg/mL (≈ 61.1 µM)	12 mm	12.5 µg/mL (≈ 30.5 µM)	6.25 µg/mL (≈ 15.3 µM)	14 mm	14 mm	MFC [1]: 25 µg/mL (≈ 61.1 µM); MFC [2]: 25 µg/mL (≈ 61.1 µM); MBC [3]: 25 µg/mL (≈ 61.1 µM); MBC [4]: 25 µg/mL (≈ 61.1 µM); MBC [5]: 25 µg/mL (≈ 61.1 µM); inhibition zone (IZ) [18]: 12 mm; MIC [27]: 6.25 µg/mL (≈ 15.3 µM)
COc1cc(-c2nnc(COc3cc(=O)oc4ccccc34)[nH]2)ccc1O	14 mm	6.25 µg/mL (≈ 17.1 µM)	<10 mm	12 mm	15 mm	12.5 µg/mL (≈ 34.2 µM)	6.25 µg/mL (≈ 17.1 µM)	14 mm	6.25 µg/mL (≈ 17.1 µM)	<10 mm	25 µg/mL (≈ 68.4 µM)	6.25 µg/mL (≈ 17.1 µM)	25 µg/mL (≈ 68.4 µM)	13 mm	12.5 µg/mL (≈ 34.2 µM)	<10 mm	50 µg/mL (≈ 137 µM)	12.5 µg/mL (≈ 34.2 µM)	11 mm	15 mm	MFC [1]: 12.5 µg/mL (≈ 34.2 µM); MFC [2]: 12.5 µg/mL (≈ 34.2 µM); MBC [3]: 12.5 µg/mL (≈ 34.2 µM); MBC [4]: 12.5 µg/mL (≈ 34.2 µM); MBC [5]: 12.5 µg/mL (≈ 34.2 µM); inhibition zone (IZ) [18]: 13 mm; MIC [27]: 6.25 µg/mL (≈ 17.1 µM)
O=c1cc(OCc2nnc(-c3ccco3)[nH]2)c2ccccc2o1	13 mm	6.25 µg/mL (≈ 20.2 µM)	12 mm	14 mm	14 mm	6.25 µg/mL (≈ 20.2 µM)	6.25 µg/mL (≈ 20.2 µM)	<10 mm	25 µg/mL (≈ 80.8 µM)	11 mm	12.5 µg/mL (≈ 40.4 µM)	6.25 µg/mL (≈ 20.2 µM)	12.5 µg/mL (≈ 40.4 µM)	<10 mm	25 µg/mL (≈ 80.8 µM)	<10 mm	25 µg/mL (≈ 80.8 µM)	50 µg/mL (≈ 162 µM)	<10 mm	15 mm	MFC [1]: 25 µg/mL (≈ 80.8 µM); MFC [2]: 12.5 µg/mL (≈ 40.4 µM); MBC [3]: 12.5 µg/mL (≈ 40.4 µM); MBC [4]: 25 µg/mL (≈ 80.8 µM); MBC [5]: 12.5 µg/mL (≈ 40.4 µM); inhibition zone (IZ) [18]: 15 mm; MIC [27]: 6.25 µg/mL (≈ 20.2 µM)
O=c1cc(OCc2nnc(-c3cccs3)[nH]2)c2ccccc2o1	15 mm	6.25 µg/mL (≈ 19.2 µM)	13 mm	15 mm	15 mm	6.25 µg/mL (≈ 19.2 µM)	6.25 µg/mL (≈ 19.2 µM)	<10 mm	25 µg/mL (≈ 76.8 µM)	12 mm	12.5 µg/mL (≈ 38.4 µM)	6.25 µg/mL (≈ 19.2 µM)	12.5 µg/mL (≈ 38.4 µM)	12 mm	12.5 µg/mL (≈ 38.4 µM)	11 mm	12.5 µg/mL (≈ 38.4 µM)	12.5 µg/mL (≈ 38.4 µM)	11 mm	14 mm	MFC [1]: 12.5 µg/mL (≈ 38.4 µM); MFC [2]: 12.5 µg/mL (≈ 38.4 µM); MBC [3]: 12.5 µg/mL (≈ 38.4 µM); MBC [4]: 25 µg/mL (≈ 76.8 µM); MBC [5]: 6.25 µg/mL (≈ 19.2 µM); inhibition zone (IZ) [18]: 14 mm; MIC [27]: 6.25 µg/mL (≈ 19.2 µM)
O=c1cc(OCc2nnc(-c3ccccc3)[nH]2)c2ccccc2o1	14 mm	6.25 µg/mL (≈ 19.6 µM)	12 mm	13 mm	11 mm	12.5 µg/mL (≈ 39.1 µM)	12.5 µg/mL (≈ 39.1 µM)	<10 mm	25 µg/mL (≈ 78.3 µM)	11 mm	12.5 µg/mL (≈ 39.1 µM)	12.5 µg/mL (≈ 39.1 µM)	12.5 µg/mL (≈ 39.1 µM)	11 mm	12.5 µg/mL (≈ 39.1 µM)	12 mm	12.5 µg/mL (≈ 39.1 µM)	12.5 µg/mL (≈ 39.1 µM)	11 mm	11 mm	inhibition zone (IZ) [18]: 12 mm; MIC [27]: 12.5 µg/mL (≈ 39.1 µM)
O=c1cc(OCc2nnc(-c3ccc(Cl)cc3)[nH]2)c2ccccc2o1	14 mm	6.25 µg/mL (≈ 17.7 µM)	12 mm	12 mm	12 mm	12.5 µg/mL (≈ 35.3 µM)	12.5 µg/mL (≈ 35.3 µM)	12 mm	12.5 µg/mL (≈ 35.3 µM)	12 mm	12.5 µg/mL (≈ 35.3 µM)	6.25 µg/mL (≈ 17.7 µM)	12.5 µg/mL (≈ 35.3 µM)	<10 mm	25 µg/mL (≈ 70.7 µM)	<10 mm	50 µg/mL (≈ 141 µM)	12.5 µg/mL (≈ 35.3 µM)	11 mm	12 mm	inhibition zone (IZ) [18]: 13 mm; MIC [27]: 12.5 µg/mL (≈ 35.3 µM)
O=c1cc(OCc2nnc(-c3ccc(Br)cc3)[nH]2)c2ccccc2o1	12 mm	6.25 µg/mL (≈ 15.7 µM)	12 mm	11 mm	13 mm	12.5 µg/mL (≈ 31.4 µM)	6.25 µg/mL (≈ 15.7 µM)	11 mm	12.5 µg/mL (≈ 31.4 µM)	<10 mm	25 µg/mL (≈ 62.8 µM)	6.25 µg/mL (≈ 15.7 µM)	12.5 µg/mL (≈ 31.4 µM)	<10 mm	25 µg/mL (≈ 62.8 µM)	<10 mm	50 µg/mL (≈ 126 µM)	12.5 µg/mL (≈ 31.4 µM)	12 mm	11 mm	inhibition zone (IZ) [18]: 15 mm; MIC [27]: 12.5 µg/mL (≈ 31.4 µM)
O=c1cc(OCc2nnc(-c3ccc(O)cc3)[nH]2)c2ccccc2o1	15 mm	6.25 µg/mL (≈ 18.6 µM)	<10 mm	12 mm	14 mm	12.5 µg/mL (≈ 37.3 µM)	6.25 µg/mL (≈ 18.6 µM)	10 mm	25 µg/mL (≈ 74.6 µM)	<10 mm	50 µg/mL (≈ 149 µM)	6.25 µg/mL (≈ 18.6 µM)	25 µg/mL (≈ 74.6 µM)	12 mm	12.5 µg/mL (≈ 37.3 µM)	11 mm	12.5 µg/mL (≈ 37.3 µM)	50 µg/mL (≈ 149 µM)	<10 mm	11 mm	inhibition zone (IZ) [18]: 14 mm; MIC [27]: 12.5 µg/mL (≈ 37.3 µM)
Cc1ccc(-c2nnc(COc3cc(=O)oc4ccccc34)[nH]2)cc1	15 mm	6.26 µg/mL (≈ 18.8 µM)	<10 mm	13 mm	13 mm	6.25 µg/mL (≈ 18.7 µM)	12.5 µg/mL (≈ 37.5 µM)	12 mm	12.5 µg/mL (≈ 37.5 µM)	11 mm	12.5 µg/mL (≈ 37.5 µM)	12.5 µg/mL (≈ 37.5 µM)	25 µg/mL (≈ 75 µM)	11 mm	25 µg/mL (≈ 75 µM)	<10 mm	50 µg/mL (≈ 150 µM)	12.5 µg/mL (≈ 37.5 µM)	11 mm	11 mm	inhibition zone (IZ) [18]: 11 mm; MIC [27]: 12.5 µg/mL (≈ 37.5 µM)
COc1ccc(-c2nnc(COc3cc(=O)oc4ccccc34)[nH]2)cc1	14 mm	6.25 µg/mL (≈ 17.9 µM)	<10 mm	12 mm	14 mm	6.25 µg/mL (≈ 17.9 µM)	6.25 µg/mL (≈ 17.9 µM)	<10 mm	25 µg/mL (≈ 71.6 µM)	<10 mm	50 µg/mL (≈ 143 µM)	12.5 µg/mL (≈ 35.8 µM)	25 µg/mL (≈ 71.6 µM)	<10 mm	25 µg/mL (≈ 71.6 µM)	<10 mm	25 µg/mL (≈ 71.6 µM)	12.5 µg/mL (≈ 35.8 µM)	11 mm	13 mm	inhibition zone (IZ) [18]: 11 mm; MIC [27]: 6.25 µg/mL (≈ 17.9 µM)
O=C(O)c1cn(C2CC2)c2cc(N3CCNCC3)c(F)cc2c1=O [CIPROFLOXACIN]					17 mm		6.25 µg/mL (≈ 18.9 µM)	19 mm	6.25 µg/mL (≈ 18.9 µM)	16 mm						15 mm	6.25 µg/mL (≈ 18.9 µM)	6.25 µg/mL (≈ 18.9 µM)	18 mm	17 mm	
Clc1ccc(COC(Cn2ccnc2)c2ccc(Cl)cc2Cl)c(Cl)c1 (stereo not drawn) [MICONAZOLE]	15 mm	6.25 µg/mL (≈ 15 µM)	17 mm	17 mm		6.25 µg/mL (≈ 15 µM)							6.25 µg/mL (≈ 15 µM)	14 mm	12.5 µg/mL (≈ 30 µM)						
